{
  "source": "patent US12077503B2",
  "about": "“Substituted cyclic amides and their use as herbicides” (FMC CORPORATION, priority 2015, dated 2024)",
  "type_in_all_cases": "in vivo",
  "key": {"[1]": {"tested_on": "Galium (catchweed bedstraw, Galium aparine)", "assay": "Test A postemergence", "details": "Galium, post-emergence, 240 h; for pest or weed control at 125 g/ha: 125 g ai/ha, postemergence", "how_it_was_run": "(§1)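 Ratings of 0 (no effect) to 100 (complete control) come from visual comparison with untreated controls roughly 10 d after treatment. Test chemicals, formulated in a non-phytotoxic solvent mixture with surfactant, were applied either as a preemergence directed soil spray on seeded soil or postemergence to one- to two-leaf plants 2 to 10 cm tall.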"}, "[2]": {"tested_on": "Kochia (Kochia scoparia)", "assay": "Test A postemergence", "details": "Bassia scoparia, post-emergence, 240 h; for pest or weed control at 125 g/ha: 125 g ai/ha, postemergence", "how_it_was_run": "as §1"}, "[3]": {"tested_on": "barnyardgrass (Echinochloa crus-galli)", "assay": "Test A postemergence", "details": "Echinochloa crus-galli, post-emergence, 240 h; for pest or weed control at 125 g/ha: 125 g ai/ha, postemergence", "how_it_was_run": "as §1"}, "[4]": {"tested_on": "blackgrass (Alopecurus myosuroides)", "assay": "Test A postemergence", "details": "Alopecurus myosuroides, post-emergence, 240 h; for pest or weed control at 125 g/ha: 125 g ai/ha, postemergence", "how_it_was_run": "as §1"}, "[5]": {"tested_on": "corn (Zea mays)", "assay": "Test A postemergence", "details": "Zea mays, post-emergence, 240 h", "how_it_was_run": "as §1"}, "[6]": {"tested_on": "giant foxtail (Setaria faberii)", "assay": "Test A postemergence", "details": "Setaria faberi, post-emergence, 240 h; for pest or weed control at 125 g/ha: 125 g ai/ha, postemergence", "how_it_was_run": "as §1"}, "[7]": {"tested_on": "pigweed (Amaranthus retroflexus)", "assay": "Test A postemergence", "details": "Amaranthus retroflexus, post-emergence, 240 h; for pest or weed control at 125 g/ha: 125 g ai/ha, postemergence", "how_it_was_run": "as §1"}, "[8]": {"tested_on": "ragweed (common ragweed, Ambrosia elatior)", "assay": "Test A postemergence", "details": "Ambrosia artemisiifolia, post-emergence, 240 h; for pest or weed control at 125 g/ha: 125 g ai/ha, postemergence", "how_it_was_run": "as §1"}, "[9]": {"tested_on": "ryegrass, Italian (Italian ryegrass, Lolium multiflorum)", "assay": "Test A postemergence", "details": "Lolium multiflorum, post-emergence, 240 h; for pest or weed control at 125 g/ha: 125 g ai/ha, postemergence", "how_it_was_run": "as §1"}, "[10]": {"tested_on": "wheat (Triticum aestivum)", "assay": "Test A postemergence", "details": "Triticum aestivum, post-emergence, 240 h; for plant injury at 125 g/ha: 125 g ai/ha, postemergence", "how_it_was_run": "as §1"}, "[11]": {"tested_on": "barnyardgrass (Echinochloa crus-galli)", "assay": "Test B flooded paddy test", "details": "Echinochloa crus-galli, Flood, 250 g ai/ha, read-out: Barnyardgrass plant response rating", "how_it_was_run": "(§2)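 Rating scale 0–100 (visual, vs untreated controls) after a 13–15 d greenhouse period; application to the flood layer, 3 cm above soil and maintained; plants at 2-leaf stage when treated.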"}, "[12]": {"tested_on": "ducksalad (Heteranthera limosa)", "assay": "Test B flooded paddy test", "details": "Heteranthera limosa, Flood, 250 g ai/ha, read-out: Ducksalad plant response rating", "how_it_was_run": "as §2"}, "[13]": {"tested_on": "rice (Oryra sativa)", "assay": "Test B flooded paddy test", "details": "Oryza sativa, Flood, 250 g ai/ha, read-out: Rice plant response rating", "how_it_was_run": "as §2"}, "[14]": {"tested_on": "sedge, umbrella (small-flower umbrella sedge, Cyperus difformis)", "assay": "Test B flooded paddy test", "details": "Cyperus difformis, Flood, 250 g ai/ha, read-out: Sedge, Umbrella plant response rating", "how_it_was_run": "as §2"}, "[15]": {"details": "scale of 0 to 100 where 0 is no effect and 100 is complete control"}, "[16]": {"details": "0 to 100 scale where 0 is no effect and 100 is complete control"}},
  "note": "Read-outs that look alike come from different tables or passages of the source.",
  "data": [
    {"smiles": "Cc1cc([C@H]2CNC(=O)[C@@H]2C(=O)Nc2ccccc2F)ccc1F", "note": "[Compound 717]", "values": [
      {"measurement": "pest or weed control at 125 g/ha", "setting": "[1]; visual injury after approximately 10 d, 0 to 100 scale (0 no effect, 100 complete control), read-out: Plant response rating, Galium", "result": 40, "unit": "%"},
      {"measurement": "pest or weed control at 125 g/ha", "setting": "[2]; visual injury after approximately 10 d, 0 to 100 scale (0 no effect, 100 complete control), read-out: Plant response rating, Kochia", "result": 20, "unit": "%"},
      {"measurement": "pest or weed control at 125 g/ha", "setting": "[3]; visual injury after approximately 10 d, 0 to 100 scale (0 no effect, 100 complete control), read-out: Plant response rating, Barnyardgrass", "result": 90, "unit": "%"},
      {"measurement": "pest or weed control at 125 g/ha", "setting": "[4]; visual injury after approximately 10 d, 0 to 100 scale (0 no effect, 100 complete control), read-out: Plant response rating, Blackgrass", "result": 0, "unit": "%"},
      {"measurement": "Corn plant response rating (crop injury, 0 = no effect, 100 = complete kill) at 125 g/ha", "setting": "[5]; 125 g ai/ha, postemergence, visual injury after approximately 10 d, 0 to 100 scale (0 no effect, 100 complete control)", "result": 0, "unit": "%"},
      {"measurement": "pest or weed control at 125 g/ha", "setting": "[6]; visual injury after approximately 10 d, 0 to 100 scale (0 no effect, 100 complete control), read-out: Plant response rating, Foxtail, Giant", "result": 30, "unit": "%"},
      {"measurement": "pest or weed control at 125 g/ha", "setting": "[7]; visual injury after approximately 10 d, 0 to 100 scale (0 no effect, 100 complete control), read-out: Plant response rating, Pigweed", "result": 0, "unit": "%"},
      {"measurement": "pest or weed control at 125 g/ha", "setting": "[8]; visual injury after approximately 10 d, 0 to 100 scale (0 no effect, 100 complete control), read-out: Plant response rating, Ragweed", "result": 0, "unit": "%"},
      {"measurement": "pest or weed control at 125 g/ha", "setting": "[9]; visual injury after approximately 10 d, 0 to 100 scale (0 no effect, 100 complete control), read-out: Plant response rating, Ryegrass, Italian", "result": 0, "unit": "%"},
      {"measurement": "plant injury at 125 g/ha", "setting": "[10]; visual injury after approximately 10 d, 0 to 100 scale (0 no effect, 100 complete control), read-out: Plant response rating, Wheat", "result": 0, "unit": "%"},
      {"measurement": "pest or weed control at 250 g/ha", "setting": "[11]; [15]", "result": 60, "unit": "%"},
      {"measurement": "pest or weed control at 250 g/ha", "setting": "[12]; [15]", "result": 100, "unit": "%"},
      {"measurement": "pest or weed control at 250 g/ha", "setting": "[13]; [15]", "result": 0, "unit": "%"},
      {"measurement": "pest or weed control at 250 g/ha", "setting": "[14]; [15]", "result": 0, "unit": "%"}
    ]},
    {"smiles": "Cc1c(F)cccc1NC(=O)[C@H]1C(=O)N(C)C[C@@H]1c1ccc2c(c1)OC(F)(F)O2", "note": "[Compound 1252]", "values": [
      {"measurement": "pest or weed control at 125 g/ha", "setting": "[1]; visual injury vs untreated controls after approx. 10 d, 0 = no effect, 100 = complete control, read-out: Galium plant response rating (0 to 100 scale)", "result": 50, "unit": "%"},
      {"measurement": "pest or weed control at 500 g/ha", "setting": "[1]; Postemergence, 500 g ai/ha, visual injury, 0 to 100 scale (0 no effect, 100 complete control), approx. 10 d, read-out: Plant response rating, Galium", "result": 60, "unit": "%"},
      {"measurement": "pest or weed control at 125 g/ha", "setting": "[2]; visual injury vs untreated controls after approx. 10 d, 0 = no effect, 100 = complete control, read-out: Kochia plant response rating (0 to 100 scale)", "result": 20, "unit": "%"},
      {"measurement": "pest or weed control at 500 g/ha", "setting": "[2]; Postemergence, 500 g ai/ha, visual injury, 0 to 100 scale (0 no effect, 100 complete control), approx. 10 d, read-out: Plant response rating, Kochia", "result": 60, "unit": "%"},
      {"measurement": "pest or weed control at 125 g/ha", "setting": "[3]; visual injury vs untreated controls after approx. 10 d, 0 = no effect, 100 = complete control, read-out: Barnyardgrass plant response rating (0 to 100 scale)", "result": 80, "unit": "%"},
      {"measurement": "pest or weed control at 500 g/ha", "setting": "[3]; Postemergence, 500 g ai/ha, visual injury, 0 to 100 scale (0 no effect, 100 complete control), approx. 10 d, read-out: Plant response rating, Barnyardgrass", "result": 90, "unit": "%"},
      {"measurement": "pest or weed control at 125 g/ha", "setting": "[4]; visual injury vs untreated controls after approx. 10 d, 0 = no effect, 100 = complete control, read-out: Blackgrass plant response rating (0 to 100 scale)", "result": 50, "unit": "%"},
      {"measurement": "pest or weed control at 500 g/ha", "setting": "[4]; Postemergence, 500 g ai/ha, visual injury, 0 to 100 scale (0 no effect, 100 complete control), approx. 10 d, read-out: Plant response rating, Blackgrass", "result": 50, "unit": "%"},
      {"measurement": "plant injury at 125 g/ha", "setting": "[5]; 125 g ai/ha, postemergence, visual injury vs untreated controls after approx. 10 d, 0 = no effect, 100 = complete control, read-out: Corn plant response rating (0 to 100 scale)", "result": 80, "unit": "%"},
      {"measurement": "Corn plant response rating (crop injury, 0 = no effect, 100 = complete kill) at 500 g/ha", "setting": "[5]; Postemergence, 500 g ai/ha, visual injury, 0 to 100 scale (0 no effect, 100 complete control), approx. 10 d", "result": 90, "unit": "%"},
      {"measurement": "pest or weed control at 125 g/ha", "setting": "[6]; visual injury vs untreated controls after approx. 10 d, 0 = no effect, 100 = complete control, read-out: Foxtail, Giant plant response rating (0 to 100 scale)", "result": 80, "unit": "%"},
      {"measurement": "pest or weed control at 500 g/ha", "setting": "[6]; Postemergence, 500 g ai/ha, visual injury, 0 to 100 scale (0 no effect, 100 complete control), approx. 10 d, read-out: Plant response rating, Foxtail, Giant", "result": 80, "unit": "%"},
      {"measurement": "pest or weed control at 125 g/ha", "setting": "[7]; visual injury vs untreated controls after approx. 10 d, 0 = no effect, 100 = complete control, read-out: Pigweed plant response rating (0 to 100 scale)", "result": 0, "unit": "%"},
      {"measurement": "pest or weed control at 500 g/ha", "setting": "[7]; Postemergence, 500 g ai/ha, visual injury, 0 to 100 scale (0 no effect, 100 complete control), approx. 10 d, read-out: Plant response rating, Pigweed", "result": 50, "unit": "%"},
      {"measurement": "pest or weed control at 125 g/ha", "setting": "[8]; visual injury vs untreated controls after approx. 10 d, 0 = no effect, 100 = complete control, read-out: Ragweed plant response rating (0 to 100 scale)", "result": 0, "unit": "%"},
      {"measurement": "pest or weed control at 500 g/ha", "setting": "[8]; Postemergence, 500 g ai/ha, visual injury, 0 to 100 scale (0 no effect, 100 complete control), approx. 10 d, read-out: Plant response rating, Ragweed", "result": 50, "unit": "%"},
      {"measurement": "pest or weed control at 125 g/ha", "setting": "[9]; visual injury vs untreated controls after approx. 10 d, 0 = no effect, 100 = complete control, read-out: Ryegrass, Italian plant response rating (0 to 100 scale)", "result": 70, "unit": "%"},
      {"measurement": "pest or weed control at 500 g/ha", "setting": "[9]; Postemergence, 500 g ai/ha, visual injury, 0 to 100 scale (0 no effect, 100 complete control), approx. 10 d, read-out: Plant response rating, Ryegrass, Italian", "result": 70, "unit": "%"},
      {"measurement": "plant injury at 125 g/ha", "setting": "[10]; visual injury vs untreated controls after approx. 10 d, 0 = no effect, 100 = complete control, read-out: Wheat plant response rating (0 to 100 scale)", "result": 70, "unit": "%"},
      {"measurement": "plant injury at 500 g/ha", "setting": "[10]; Postemergence, 500 g ai/ha, visual injury, 0 to 100 scale (0 no effect, 100 complete control), approx. 10 d, read-out: Plant response rating, Wheat", "result": 70, "unit": "%"},
      {"measurement": "pest or weed control at 250 g/ha", "setting": "[11]; [16]", "result": 65, "unit": "%"},
      {"measurement": "pest or weed control at 250 g/ha", "setting": "[12]; [16]", "result": 100, "unit": "%"},
      {"measurement": "pest or weed control at 250 g/ha", "setting": "[13]; [16]", "result": 30, "unit": "%"},
      {"measurement": "pest or weed control at 250 g/ha", "setting": "[14]; [16]", "result": 0, "unit": "%"}
    ]}
  ]
}
